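Grown in 96-well plates, cells were treated for 48 hours with each compound at five concentrations. Insufficient inhibition: endpoint recorded as highest concentration tested. At the GI50, growth is halved. TGI is the concentration that stops growth completely.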
Tests used:
Test in all cases: NCI-60 cell line screen, 48 h
[1] = system: 786-0 renal
[2] = system: A498 renal
[3] = system: A549 NSCLC
[4] = system: ACHN renal
[5] = system: BT-549 breast
[6] = system: CAKI-1 renal
[7] = system: CCRF-CEM leukemia
[8] = system: COLO 205 colon
[9] = system: DU-145 prostate
[10] = system: EKVX NSCLC
[11] = system: HCC-2998 colon
[12] = system: HCT-116 colon
[13] = system: HCT-15 colon
[14] = system: HL-60(TB) leukemia
[15] = system: HOP-62 NSCLC
[16] = system: HOP-92 NSCLC
[17] = system: HS 578T breast
[18] = system: HT29 colon
[19] = system: IGROV1 ovarian
[20] = system: K-562 leukemia
[21] = system: KM12 colon
[22] = system: LOX IMVI melanoma
[23] = system: M14 melanoma
[24] = system: MALME-3M melanoma
[25] = system: MCF7 breast
[26] = system: MDA-MB-231 breast
[27] = system: MDA-MB-435
[28] = system: MOLT-4 leukemia
[29] = system: NCI-H226 lung
[30] = system: NCI-H23 lung
[31] = system: NCI-H460 lung
[32] = system: NCI-H522 lung
[33] = system: NCI/ADR-RES ovarian
[34] = system: OVCAR-3 ovarian
[35] = system: OVCAR-4 ovarian
[36] = system: OVCAR-5 ovarian
[37] = system: OVCAR-8 ovarian
[38] = system: PC-3 prostate
[39] = system: RPMI-8226 leukemia
[40] = system: RXF 393 renal
[41] = system: SF-268 CNS
[42] = system: SF-295 CNS
[43] = system: SF-539 CNS
[44] = system: SK-MEL-2 melanoma
[45] = system: SK-MEL-28 melanoma
[46] = system: SK-MEL-5 melanoma
[47] = system: SK-OV-3 ovarian
[48] = system: SN12C renal
[49] = system: SNB-19 CNS
[50] = system: SNB-75 CNS
[51] = system: SR leukemia
[52] = system: SW-620 colon
[53] = system: T-47D breast
[54] = system: TK-10 renal
[55] = system: U251 CNS
[56] = system: UACC-257 melanoma
[57] = system: UACC-62 melanoma
[58] = system: UO-31 renal

Which GI50 [1] does the source give for `O=C(/C=C/c1cc2ccccc2[nH]c1=O)c1ccc(Cl)cc1` here?
The GI50 was over 37.2 µM.

And the TGI [1]?
The TGI was over 100 µM.

And the GI50 [2]?
Its GI50 is over 56.3 µM.

What about the TGI [2] of the same molecule?
The TGI was over 100 µM.

What about the GI50 [3] of the same molecule?
Its GI50 is 30.7 µM.

And the TGI [3]?
Its TGI is over 100 µM.

And the GI50 [4]?
The GI50 was 33 µM.

And the TGI [4]?
Its TGI is over 64.9 µM.

And the GI50 [5]?
Its GI50 is 24.9 µM.

And the TGI [5]?
The TGI was over 55.6 µM.

What about the GI50 [6] of the same molecule?
Its GI50 is 16.8 µM.

And the TGI [6]?
Its TGI is over 32.1 µM.

What about the GI50 [7] of the same molecule?
Its GI50 is 21.6 µM.

And the TGI [7]?
Its TGI is over 100 µM.

What about the GI50 [8] of the same molecule?
Its GI50 is 37.4 µM.

What about the TGI [8] of the same molecule?
The TGI was over 80 µM.

And the GI50 [9]?
Its GI50 is 23 µM.

What about the TGI [9] of the same molecule?
Its TGI is over 78.8 µM.

And the GI50 [10]?
The GI50 was 28.5 µM.

And the TGI [10]?
The TGI was over 100 µM.

What about the GI50 [11] of the same molecule?
The GI50 was 25.1 µM.

What about the TGI [11] of the same molecule?
Its TGI is 56.6 µM.

And the GI50 [12]?
Its GI50 is 18 µM.

And the TGI [12]?
The TGI was 49.1 µM.

And the GI50 [13]?
Its GI50 is 20.2 µM.

And the TGI [13]?
Its TGI is over 58.7 µM.

What about the TGI [14] of the same molecule?
The TGI was over 100 µM.

And the GI50 [15]?
The GI50 was 29.6 µM.

And the TGI [15]?
The TGI was over 76.2 µM.

What about the GI50 [16] of the same molecule?
Its GI50 is 21.6 µM.

And the TGI [16]?
Its TGI is 76.8 µM.

What about the GI50 [17] of the same molecule?
Its GI50 is over 48 µM.

What about the TGI [17] of the same molecule?
Its TGI is over 100 µM.

And the GI50 [18]?
Its GI50 is 21 µM.

What about the TGI [18] of the same molecule?
The TGI was over 60.8 µM.

What about the GI50 [19] of the same molecule?
The GI50 was 23.3 µM.

What about the TGI [19] of the same molecule?
The TGI was over 52.8 µM.

And the GI50 [20]?
Its GI50 is over 71.3 µM.

What about the TGI [20] of the same molecule?
The TGI was over 100 µM.

And the GI50 [21]?
The GI50 was 22.3 µM.

What about the TGI [21] of the same molecule?
Its TGI is over 54.6 µM.

And the GI50 [22]?
The GI50 was 19.4 µM.

And the TGI [22]?
The TGI was over 60.5 µM.

And the GI50 [23]?
The GI50 was 28.7 µM.

What about the TGI [23] of the same molecule?
The TGI was over 73.5 µM.

And the GI50 [24]?
Its GI50 is 37.2 µM.

What about the TGI [24] of the same molecule?
Its TGI is over 70.7 µM.

What about the GI50 [25] of the same molecule?
Its GI50 is 17.9 µM.

And the TGI [25]?
Its TGI is over 100 µM.

What about the GI50 [26] of the same molecule?
The GI50 was 25.5 µM.

What about the TGI [26] of the same molecule?
The TGI was 61.3 µM.

And the GI50 [27]?
The GI50 was 18.8 µM.

And the TGI [27]?
Its TGI is over 50.8 µM.

What about the GI50 [28] of the same molecule?
Its GI50 is 22.8 µM.

And the TGI [28]?
The TGI was over 100 µM.

What about the GI50 [29] of the same molecule?
Its GI50 is 41 µM.

And the TGI [29]?
Its TGI is over 73 µM.

And the GI50 [30]?
Its GI50 is 27.3 µM.

And the TGI [30]?
Its TGI is 97.7 µM.

And the GI50 [31]?
The GI50 was 26.2 µM.

What about the TGI [31] of the same molecule?
The TGI was over 57.3 µM.

And the GI50 [32]?
Its GI50 is 15.7 µM.

What about the TGI [32] of the same molecule?
Its TGI is 32.1 µM.

And the GI50 [33]?
The GI50 was 21.9 µM.

And the TGI [33]?
Its TGI is 56.2 µM.

What about the GI50 [34] of the same molecule?
Its GI50 is 27.3 µM.

What about the TGI [34] of the same molecule?
The TGI was over 67.6 µM.

What about the GI50 [35] of the same molecule?
The GI50 was 17.3 µM.

What about the TGI [35] of the same molecule?
Its TGI is over 100 µM.

What about the GI50 [36] of the same molecule?
Its GI50 is 38.2 µM.

And the TGI [36]?
Its TGI is 99 µM.

What about the GI50 [37] of the same molecule?
The GI50 was 25.3 µM.

And the TGI [37]?
The TGI was over 59.6 µM.

And the GI50 [38]?
Its GI50 is over 67.7 µM.

And the TGI [38]?
The TGI was over 100 µM.

And the GI50 [39]?
The GI50 was 13.8 µM.

And the TGI [39]?
Its TGI is 50.1 µM.

And the GI50 [40]?
Its GI50 is 22.9 µM.

What about the TGI [40] of the same molecule?
Its TGI is over 60.2 µM.

What about the GI50 [41] of the same molecule?
The GI50 was 28 µM.

And the TGI [41]?
Its TGI is over 85.8 µM.

What about the GI50 [42] of the same molecule?
The GI50 was 23.2 µM.

And the TGI [42]?
The TGI was over 72.6 µM.

What about the GI50 [43] of the same molecule?
Its GI50 is 16.9 µM.

What about the TGI [43] of the same molecule?
The TGI was 39.3 µM.

And the GI50 [44]?
Its GI50 is 30.1 µM.

And the TGI [44]?
Its TGI is over 63.6 µM.

What about the GI50 [45] of the same molecule?
The GI50 was over 56.1 µM.

And the TGI [45]?
The TGI was over 89.8 µM.

What about the GI50 [46] of the same molecule?
Its GI50 is 47.6 µM.

And the TGI [46]?
Its TGI is over 100 µM.

What about the GI50 [47] of the same molecule?
Its GI50 is 55.1 µM.

And the TGI [47]?
The TGI was over 100 µM.

And the GI50 [48]?
Its GI50 is 30.8 µM.

What about the TGI [48] of the same molecule?
Its TGI is over 100 µM.

What about the GI50 [49] of the same molecule?
Its GI50 is 28.2 µM.

And the TGI [49]?
The TGI was over 100 µM.

And the GI50 [50]?
Its GI50 is 22.4 µM.

What about the TGI [50] of the same molecule?
Its TGI is 61.5 µM.

And the GI50 [51]?
The GI50 was 15.6 µM.

And the TGI [51]?
Its TGI is over 57.6 µM.

What about the GI50 [52] of the same molecule?
The GI50 was 20.5 µM.

What about the TGI [52] of the same molecule?
The TGI was over 49.5 µM.

And the GI50 [53]?
Its GI50 is 27.3 µM.

And the TGI [53]?
Its TGI is over 100 µM.

And the GI50 [54]?
The GI50 was 26.4 µM.

And the TGI [54]?
Its TGI is over 59.3 µM.

And the GI50 [55]?
The GI50 was 19.1 µM.

And the TGI [55]?
Its TGI is over 48.5 µM.

And the GI50 [56]?
The GI50 was 33.5 µM.

What about the TGI [56] of the same molecule?
Its TGI is over 77.7 µM.

And the GI50 [57]?
Its GI50 is 26.4 µM.

What about the TGI [57] of the same molecule?
The TGI was over 81.6 µM.

What about the GI50 [58] of the same molecule?
The GI50 was over 23 µM.

What about the TGI [58] of the same molecule?
The TGI was over 100 µM.
